Patent US20100173910A1, “TRIAMINOPYRIMIDINE CYCLOBUTENEDIONE DERIVATIVES USED AS PHOSPHATASE CDC25 INHIBITORS” (IPDRN PHSTMS D.S.S., priority 2007, published 2010)

Experiments:
[1] = target: T1, purified recombinant CDC25C enzyme (MBP-CDC25C protein) (Homo sapiens, UniProt P30307); experiment: Phosphatase activity of the purified recombinant CDC25C enzyme (OMFP dephosphorylation, fluorescence); format: biochemical; conditions: OMFP 500 μM, 4 hours at 30° C., three independent experiments; nested upper bounds; read-out: IC50 for the phosphatase activity of the purified recombinant CDC25-C enzyme
T1 construct: made in house
T1 sequence (P30307 1-473): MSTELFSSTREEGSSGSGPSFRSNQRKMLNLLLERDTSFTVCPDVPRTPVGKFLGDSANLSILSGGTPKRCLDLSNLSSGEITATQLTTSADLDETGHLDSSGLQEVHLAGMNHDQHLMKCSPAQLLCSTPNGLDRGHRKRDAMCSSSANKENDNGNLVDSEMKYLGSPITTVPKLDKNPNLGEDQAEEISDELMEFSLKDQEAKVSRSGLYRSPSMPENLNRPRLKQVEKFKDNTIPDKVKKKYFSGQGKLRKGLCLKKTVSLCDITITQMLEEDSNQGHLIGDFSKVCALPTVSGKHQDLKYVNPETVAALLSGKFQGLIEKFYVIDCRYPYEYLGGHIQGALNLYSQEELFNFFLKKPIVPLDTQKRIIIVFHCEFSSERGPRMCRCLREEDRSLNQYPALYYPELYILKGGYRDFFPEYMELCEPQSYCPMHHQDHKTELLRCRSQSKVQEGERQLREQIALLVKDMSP
Procedure: i) Determination of the Phosphatase Activity of the Purified Recombinant CDC25C Enzyme:
The phosphatase activity of the MBP-CDC25C protein is evaluated through its dephosphorylation of 3-O-methylfluorescein-phosphate (OMFP) to form 3-O-methylfluorescein (OMF), determining the fluorescence of the reaction product at 475 nm. This assay can be used to identify inhibitors of the recombinant CDC25 enzyme. The preparation of the MBP-CDC25C fusion protein is described in the PCT patent application published under the number WO 01/44467.
The reaction is performed in 384-well plates in a final volume of 50 μl. The MBP-CDC25C protein (prepared as described hereinabove) is stored in the following elution buffer: 20 mM Tris-HCl pH 7.4; 250 mM NaCl; 1 mM EDTA; 1 mM dithiothreitol (DTT); 10 mM maltose. It is diluted to a concentration of 60 μM in the following reaction buffer: 50 mM Tris-HCl pH 8.2; 50 mM NaCl; 1 mM DTT; 20% glycerol. The background noise is determined using with the buffer without adding the enzyme. The products are tested at decreasing concentrations from 40 μM. The reaction is initiated by the addition of OMFP solution to a final concentration of 500 μM (prepared immediately before use from a 12.5 mM stock solution in 100% DMSO (Sigma #M2629)). After 4 hours at 30° C. in a disposable 384-well plate, the fluorescence measured at OD 475 nm is read on a Victor^2 plate reader (EGG-Wallac). The concentration that produces 50% inhibition of the enzyme reaction is calculated from three independent experiments. Only the values that fall within the linear part of the sigmoid curve are used for the linear regression analysis.

[2] = tested on: MIA PaCa-2 (human pancreatic carcinoma cells); experiment: Anti-proliferative activity, MIA PaCa-2 cells (WST1 colorimetric test); format: cell-based; conditions: MIA PaCa-2, 96 h, 96 hours treatment, up to 10 μM, nested upper bounds, read-out: IC50 for proliferation of the MIA PaCa-2 cell lines
Procedure: (§1) ii) Characterisation of Anti-Proliferative Activity:
(§2) By way of an example, the effect of treating two human cell lines MIA PaCa-2 and DU 145 with the compounds of the examples described hereinbefore will be studied. The cell lines DU 145 (human prostate carcinoma cells) and MIA PaCa-2 (human pancreatic carcinoma cells) were obtained from the American Tissue Culture Collection (Rockville, Md., USA). A 96-well plate was inoculated on day 0 with cells in 80 μl of Dulbecco's modified Eagle's medium (Gibco-Brl, Cergy-Pontoise, France) with 10% heat-inactivated foetal calf serum (Gibco-Brl, Cergy-Pontoise, France), 50,000 units/l of penicillin and 50 mg/l of streptomycin (Gibco-Brl, Cergy-Pontoise, France) and 2 mM of glutamine (Gibco-Brl, Cergy-Pontoise, France). The cells were treated on day 1 for 96 hours with increasing concentrations of each test compound up to 10 μM. At the end of this period, cell proliferation is quantified by means of a colorimetric test based on cleavage of the tetrazolium salt WST1 by the mitochondrial dehydrogenases in the viable cells, resulting in formation of formazan (Boehringer Mannheim, Meylan, France). These tests are performed in duplicate with 8 determinations per concentration tested. For each test compound, the values within the linear part of the sigmoid curve were subjected to linear regression analysis and used to estimate the IC50 inhibitory concentration. The products are solubilised in dimethylsulfoxide (DMSO) at a concentration of 10^−2 M and used in culture with a final DMSO concentration of 0.1%.

[3] = tested on: DU 145 (human prostate carcinoma cells); experiment: Anti-proliferative activity, DU 145 cells (WST1 colorimetric test); format: cell-based; conditions: DU-145, 96 h, 96 hours treatment, up to 10 μM, nested upper bounds, read-out: IC50 for proliferation of the DU 145 cell lines
Procedure: as §1, §2

| SMILES | IC50 [1] | IC50 [2] | melting point | IC50 [3] |
| --- | --- | --- | --- | --- |
| O=c1c(NCCNc2cc(N3CCCC3)nc(N3CCCC3)n2)c(Nc2ccc(O)cc2)c1=O [Example 27, 3-({2-[(2,6-dipyrrolidin-1-ylpyrimidin-4-yl)amino]ethyl}amino)-4-[(4-hydroxyphenyl)amino]cyclobut-3-ene-1,2-dione] | ≤ 15 µM | – | > 260 °C | – |
| Cl.NCCc1ccc(Nc2c(NCCNc3cc(N4CCCC4)nc(N4CCCC4)n3)c(=O)c2=O)cc1 [Example 30, 3-{[4-(2-aminoethyl)phenyl]amino}-4-({2-[(2,6-dipyrrolidin-1-ylpyrimidin-4-yl)amino]ethyl}amino)cyclobut-3-ene-1,2-dione hydrochloride] | ≤ 5 µM | – | 250 to 252 °C | – |
| O=c1c(NCCNc2cc(N3CCCC3)nc(N3CCCC3)n2)c(Nc2cccc(-c3nnn[nH]3)c2)c1=O [Example 12, 3-({2-[(2,6-dipyrrolidin-1-ylpyrimidin-4-yl)amino]ethyl}amino)-4-{[3-(1H-tetrazol-5-yl)phenyl]amino}cyclobut-3-ene-1,2-dione] | ≤ 5 µM | – | – | – |
| O=c1c(NCCNc2cc(N3CCCC3)nc(N3CCCC3)n2)c(Nc2ccccc2Cl)c1=O [Example 16, 3-[(2-chlorophenyl)amino]-4-({2-[(2,6-dipyrrolidin-1-ylpyrimidin-4-yl)amino]ethyl}amino)cyclobut-3-ene-1,2-dione] | ≤ 1 µM | ≤ 10 µM | 179 to 181 °C | – |
| CN(CCNc1cc(N2CCCC2)nc(N2CCCC2)n1)CCNc1c(O)c(=O)c1=O [Example 7, 3-({2-[{2-[(2,6-dipyrrolidin-1-ylpyrimidin-4-yl)amino]ethyl}(methyl)amino]ethyl}amino)-4-hydroxycyclobut-3-ene-1,2-dione] | ≤ 5 µM | – | – | – |
| O=c1c(NCCNc2cc(N3CCCC3)nc(N3CCCC3)n2)c(Nc2ccc(Cl)cc2)c1=O [Example 9, 3-[(4-chlorophenyl)amino]-4-({2-[(2,6-dipyrrolidin-1-ylpyrimidin-4-yl)amino]ethyl}amino)cyclobut-3-ene-1,2-dione] | ≤ 1 µM | – | 251 to 253 °C | – |
| O=c1c(NCCNc2cc(N3CCCC3)nc(N3CCCC3)n2)c(N2CCCCC2)c1=O [Example 2, 3-({2-[(2,6-dipyrrolidin-1-ylpyrimidin-4-yl)amino]ethyl}amino)-4-piperidin-1-ylcyclobut-3-ene-1,2-dione] | ≤ 5 µM | – | > 250 °C | – |
| Cl.O=c1c(NCCNc2cc(N3CCCC3)nc(N3CCCC3)n2)c(Nc2ccc(Cl)cc2)c1=O | – | – | > 370 °C | – |
| O=c1c(NCCNc2cc(N3CCCC3)nc(N3CCCC3)n2)c(Nc2ccc(-c3ccccc3)cc2)c1=O [Example 11, 3-(biphenyl-4-ylamino)-4-({2-[(2,6-dipyrrolidin-1-ylpyrimidin-4-yl)amino]ethyl}amino)cyclobut-3-ene-1,2-dione] | ≤ 5 µM | – | – | ≤ 10 µM |
| CC(=O)Nc1ccc(Nc2c(NCCNc3cc(N4CCCC4)nc(N4CCCC4)n3)c(=O)c2=O)cc1 [Example 13, N-(4-{[2-({2-[(2,6-dipyrrolidin-1-ylpyrimidin-4-yl)amino]ethyl}amino)-3,4-dioxocyclobut-1-en-1-yl]amino}phenyl)acetamide] | ≤ 5 µM | – | 263 to 265 °C | – |
| COc1c(NCCNc2cc(N3CCCC3)nc(N3CCCC3)n2)c(=O)c1=O [Example 1, 3-({2-[(2,6-dipyrrolidin-1-ylpyrimidin-4-yl)amino]ethyl}amino)-4-methoxycyclobut-3-ene-1,2-dione] | ≤ 5 µM | – | 116 to 118 °C | – |
| O=c1c(NCCNc2cc(N3CCCC3)nc(N3CCCC3)n2)c(Nc2ccccc2)c1=O [Example 35, 3-anilino-4-({2-[(2,6-dipyrrolidin-1-ylpyrimidin-4-yl)amino]ethyl}amino)cyclobut-3-ene-1,2-dione] | ≤ 1 µM | ≤ 10 µM | – | – |
| O=c1c(NCCNc2cc(N3CCCC3)nc(N3CCCC3)n2)c(N2CCOCC2)c1=O [Example 4, 3-({2-[(2,6-dipyrrolidin-1-ylpyrimidin-4-yl)amino]ethyl}amino)-4-morpholin-4-ylcyclobut-3-ene-1,2-dione] | ≤ 5 µM | – | 242 to 244 °C | – |
| COc1cc(Nc2c(NCCNc3cc(N4CCCC4)nc(N4CCCC4)n3)c(=O)c2=O)cc(OC)c1OC [Example 14, 3-({2-[(2,6-dipyrrolidin-1-ylpyrimidin-4-yl)amino]ethyl}amino)-4-[(3,4,5-trimethoxyphenyl)amino]cyclobut-3-ene-1,2-dione] | ≤ 5 µM | ≤ 10 µM | 154 to 156 °C | – |

The next lines start with the values.

| IC50 [1] | IC50 [2] | melting point | IC50 [3] | SMILES |
| --- | --- | --- | --- | --- |
| ≤ 5 µM | ≤ 10 µM | > 260 °C | – | CNCc1ccc(Nc2c(NCCNc3cc(N4CCCC4)nc(N4CCCC4)n3)c(=O)c2=O)cc1.Cl [Example 22, 3-({2-[(2,6-dipyrrolidin-1-ylpyrimidin-4-yl)amino]ethyl}amino)-4-({4-[(methylamino)methyl]phenyl}amino)cyclobut-3-ene-1,2-dione hydrochloride] |
| – | – | 248 to 250 °C | – | O=C(O)/C=C\C(=O)O.O=c1c(NCCNc2cc(N3CCCC3)nc(N3CCCC3)n2)c(Nc2ccc(Cl)cc2)c1=O [Example 9d, 3-[(4-chlorophenyl)amino]-4-({2-[(2,6-dipyrrolidin-1-ylpyrimidin-4-yl)amino]ethyl}amino)cyclobut-3-ene-1,2-dione maleate] |
| – | – | 263 to 266 °C | – | O=S(=O)(O)O.O=c1c(NCCNc2cc(N3CCCC3)nc(N3CCCC3)n2)c(Nc2ccc(Cl)cc2)c1=O [Example 9b, 3-[(4-chlorophenyl)amino]-4-({2-[(2,6-dipyrrolidin-1-ylpyrimidin-4-yl)amino]ethyl}amino)cyclobut-3-ene-1,2-dione sulfate] |
| – | – | 275 to 278 °C | – | O=P(O)(O)O.O=c1c(NCCNc2cc(N3CCCC3)nc(N3CCCC3)n2)c(Nc2ccc(Cl)cc2)c1=O [Example 9c, 3-[(4-chlorophenyl)amino]-4-({2-[(2,6-dipyrrolidin-1-ylpyrimidin-4-yl)amino]ethyl}amino)cyclobut-3-ene-1,2-dione phosphate] |
| ≤ 5 µM | – | 132 to 134 °C | – | COc1c(NCCN(C)CCNc2cc(N3CCCC3)nc(N3CCCC3)n2)c(=O)c1=O [Example 6] |
| ≤ 5 µM | ≤ 10 µM | 224 to 226 °C | – | Cl.NCc1ccc(Nc2c(NCCNc3cc(N4CCCC4)nc(N4CCCC4)n3)c(=O)c2=O)cc1 [Example 28, 3-{[4-(aminomethyl)phenyl]amino}-4-({2-[(2,6-dipyrrolidin-1-ylpyrimidin-4-yl)amino]ethyl}amino)cyclobut-3-ene-1,2-dione hydrochloride] |
| ≤ 1 µM | – | 246 to 248 °C | – | CCCCNc1c(NCCNc2cc(N3CCCC3)nc(N3CCCC3)n2)c(=O)c1=O [Example 3, 3-(butylamino)-4-({2-[(2,6-dipyrrolidin-1-ylpyrimidin-4-yl)amino]ethyl}amino)cyclobut-3-ene-1,2-dione] |
